From patent US20140179521A1, “COMPOSITIONS INCORPORATING HYTd” (Agrinos AS, priority 2012, published 2014)

Tests used:
Type in all cases: in vivo
Mildew = experiment: Small grain cereal replicated field experiments, mildew level / disease control; settings: small grain cereals
Rhizoctonia solani = experiment: Potato field experiment, expression of Rhizoctonia solani
small grain cereals = experiment: Small grain cereal replicated field experiments, grain yield; settings: applied topically at growth stage 37
[1] = system: potato variety Maris Piper; experiment: Potato field experiment, tuber yield
Streptomyces scabies = experiment: Potato field experiment, expression of Streptomyces scabies; settings: potato Maris Piper, field plots, treatment applied at planting
[2] = potato Maris Piper, field plots, treatment applied at planting
[3] = potatoes, in-furrow application, field observations

## CO/C=C(/C(=O)OC)c1ccccc1Oc1cc(Oc2ccccc2C#N)ncn1 [azoxystrobin]
Mildew
  disease control / period of disease suppression (in words): significant levels of disease control
Mildew; 7 days after treatment
  Mildew level 7 days after treatment: 4%
Mildew; 21 days after treatment
  Mildew level 21 days after treatment: 11%
Rhizoctonia solani; [2]
  R. solani: 2%
Rhizoctonia solani; [3]
  control of Rhizoctonia (in words): high level disease control
Small grain cereals
  Yield t/ha: 10.44 t/ha
[1]; [2]
  Yield t/ha: 62.17 t/ha
[1]; [3]
  effect on yield (in words): little direct yield increase
Streptomyces scabies
  S. scabies: 46%
